# Measured values taken from the OPERA property sets (Mansouri et al. 2018).
# Peptide text beside a SMILES is read from it.
row,Structure (SMILES),logP
1,CC(=O)Nc1ccc(S(=O)(=O)F)cc1,2.17
2,CCS(=O)(=O)CCn1c([N+](=O)[O-])cnc1C,-0.35
3,CC(=O)c1ccc(Br)cc1,2.43
4,O=C(O)CC[Se]Cc1ccc([N+](=O)[O-])cc1,1.63
5,CCCCOC(=O)CNC(=O)CCCCSc1[nH]cnc2ncnc1-2,1.39
6,Oc1c(Br)cc(Br)c(O)c1Br,4.37
7,CC(=O)N[C@@H](Cc1c[nH]c2ccccc12)C(=O)N[C@@H](C)C(=O)N[C@H](C(N)=O)C(C)C (Ac-Trp-Ala-Val-NH2),0.36
8,Cc1ccc(Cl)cc1Cl,4.24
9,O=[N+]([O-])c1ccc2[nH]ccc2c1,2.53
10,CCCCCCCCOc1ccccc1NC(=O)OCCN1CCCCC1,6.36
11,CNC(=O)ON=C(SC)C(=O)N(C)C,-0.47
12,O=C(O)c1ccccn1,0.72
13,NC(=O)Nc1ccc(C(O)C(CO)NC(=O)C(Cl)Cl)cc1 (stereo unspecified),-0.6
14,CC(=O)C(C)(C)C,1.2
15,Cc1cccc(Cl)c1Nc1ccccc1CC(=O)O,4.37
16,CC(C)NC(=O)C=Cc1ccc([N+](=O)[O-])o1,1.34
17,O=C(c1ccccc1)n1c(=O)[nH]cc(F)c1=O,0.8
18,Cc1cc([N+](=O)[O-])cc2c1NC(=O)CN=C2c1ccccc1,2.44
19,c1cc2c3c(cccc3c1)CC2,3.92
20,NC(=O)[C@@H]1CCCN1C(=O)[C@H](Cc1cnc[nH]1)NC(=O)[C@@H]1CCC(=O)N1,-2.46
21,C[C@@H]1C[C@@]2(C)[C@@H](CC[C@@H]3[C@@H]2CC[C@]2(C)[C@@H](O)CC[C@@H]32)CC1=O,3.99

row,Structure (SMILES),logP
1,Cc1ccsc1,2.34
2,COc1cc(NS(=O)(=O)c2ccc(N)cc2)nc(C)n1,0.61
3,O=C(C=Cc1ccccc1)OCC=Cc1ccccc1,4.45
4,ClCBr,1.41
5,O=NN(CCCl)C(=O)NC1CCCCC1,2.83
6,CN(C)N=Nc1ccc(CCCC(=O)O)cc1,2.62
7,CN1C(=O)CC(=O)NC1=O,-0.85
8,CC(C)(O)C(C(=O)O)c1ccc(-c2ccccc2)cc1 (stereo unspecified),3.25
9,Cc1ncc[nH]1,0.24
10,COc1cccc2c1C(=N)c1c(O)c3c(c(O)c1C2=O)CC(O)(C(=O)CO)CC3OC1CC(N2CCOCC2)C(O)C(C)O1 (stereo unspecified),1.8
11,FC(F)(Cl)C(F)(F)Cl,2.82
12,Clc1cccnc1,1.33
13,O=C(O)c1cccc(Br)c1,2.87
14,c1ccc2[nH]nnc2c1,1.44
15,C=CNP(=O)(NC=C)NC(=O)c1cccc(OC)c1,0.86
16,O=[N+]([O-])c1ncn(CC(F)CO)n1 (stereo unspecified),-0.8
17,O=C(O)C(Cc1ccccc1)n1cccc1 (stereo unspecified),2.34
18,COc1cccc(S(C)(=O)=O)c1,0.76
19,CC1=CC(=O)C=CC1=O,0.72
20,CCOC(=O)C(=O)c1cccs1,1.77
21,Cc1ccc(Cl)cc1NC1=NCCN1,1.83

row,Structure (SMILES),logP
1,COC(=O)C1C(C=C(Cl)Cl)C1(C)C (stereo unspecified),3.63
2,CNn1cc(C(=O)O)c(=O)c2cc(F)c(N3CCN(C)CC3)cc21,0.23
3,O=C(Nc1ccc([N+](=O)[O-])cc1)c1cccnc1,1.82
4,Cn1c(=O)cnc2ccccc21,0.79
5,CNc1ccccc1C,2.16
6,Cn1c(C=[N+](C)[O-])cnc1[N+](=O)[O-],0.04
7,ClC(Cl)(Cl)C(c1ccccc1)c1ccccc1,4.87
8,CCSC(=O)N(CC(C)C)CC(C)C,4.15
9,O=C(O)COc1ccc(O)cc1,0.65
10,N#Cc1cccc([N+](=O)[O-])c1,1.17
11,COc1ccc(Cl)cc1,2.78
12,Clc1ccc(-c2cc(Cl)c(Cl)cc2Cl)cc1Cl,7.12
13,C=C(C)C(=O)OC(C)(C)C,2.54
14,CC(C)NNC(=O)COc1ccccc1Cl,1.82
15,CCCC(=NOCC)C1C(=O)CC2(CCC(C)CC2)OC1=O (stereo unspecified),4.07
16,COc1ccc(S(I)=C(N(C)C)N(C)C)c([N+](=O)[O-])c1 (stereo unspecified),-0.22
17,c1ccc(-c2nc3ccccc3[nH]2)cc1,3.24
18,CCCCC(C)=O,1.38
19,O=C1Nc2ccccc2C1=O,0.83
20,NC(=O)CCl,-0.53
21,COc1ccc(CN(CCN(C)C)c2ccccn2)cc1,3.27

row,Structure (SMILES),logP
1,c1ccc2c(c1)CCc1ccccc1-2,4.52
2,CCN(CC)CCOC(=O)C=Cc1cc(OC)c(OC)c(OC)c1,2.84
3,Cc1cccc2nccnc12,2.04
4,CNC(=O)Oc1ccc(C(C)(C)C)cc1,3.06
5,Cc1ccc(CO)cc1,1.58
6,CC(CO)NC1=C(N2CC2)C(=O)C(NC(C)CO)=C(N2CC2)C1=O (stereo unspecified),-0.37
7,COc1ccc([N+](=O)[O-])cc1N,1.47
8,CCOP(=S)(OCC)Oc1ccc(S(C)=O)cc1 (stereo unspecified),2.23
9,CCCCCCCCCCNC(=O)c1[nH]nc(C)c1[N+](=O)[O-],4.48
10,Oc1ccc(Cl)cc1Cc1cc(Cl)ccc1O,4.26
11,NC(=O)c1ccccc1N,0.35
12,O=C1NC(=O)C(c2ccccc2)(c2ccc(O)cc2)N1 (stereo unspecified),1.7
13,C#CC(C)OC(=O)Nc1ccc(OCC)c(OCC)c1 (stereo unspecified),2.68
14,CCN(CC)CC(O)c1ccccc1 (stereo unspecified),2.02
15,COC(=O)c1ccc(NC(C)=O)cc1,1.79
16,Fc1cc(F)c(F)c(F)c1F,2.53
17,O=C(CN1CCCCC1)Nc1ccccc1[N+](=O)[O-],2.75
18,CN(N=O)C(N)=O,-0.03
